Experimental data published in patent US20150017673A1, “COMPOSITIONS AND METHODS FOR DRUG-SENSITIZATION OR INHIBITION OF A CANCER CELL” (priority 2012, published 2015).

How the values were obtained:
[1] = test system: primary human fibroblasts; conditions: with and without 2 uM Dox
ABCB1 pumps = ABCB1 pumps (Homo sapiens, UniProt P08183); conditions: NCI/ADR-RES and G3 cells
[2] = test system: CHOP-sensitive NHL cell line CRL2631; test: Cell growth assay (resazurin) on CHOP-sensitive CRL2631 NHL cells; assay type: cell-based, human
[3] = test system: G3 CHOP-resistant NHL cells
Experimental: In a first efficacy study, 6-8 week old female SCID mice (7 mice per treatment arm) were injected subcutaneously on both flanks with 1×10^7 G3 CHOP-resistant NHL cells. Once palpable tumors (about […] size) appeared, therapies (CHOP or CHOP+rifabutin) were started. CHOP was administered at the maximum tolerated dose (cyclophosphamide, 40 mg/kg i.v.; doxorubicin, 3.3 mg/kg i.v.; vincristine, 0.5 mg/kg i.v.; and prednisone, 0.2 mg/kg orally daily for 5 d) weekly for 3 weeks. Rifabutin in an amount of 100 mg/kg was administered on the day of each CHOP treatment and 24-hours later by gavage. Mouse body weight and tumor size were monitored every two days and tumor size measured by caliper. The tumor volume formula (L*W*W)/2 was used to calculate tumor mass.
A second efficacy study was conducted where mice were treated before the appearance of palpable tumors. In that experiment, one week after transplantation of CHOP-resistant G3 cells, one group (7 mice) was treated with CHOP-only and a second group (8 mice) was treated with CHOP+rifabutin.
A third study was conducted in which mice injected with CHOP-resistant G3 cells received reduced dosages of CHOP in combination with 33 mg/kg rifabutin. CHOP+rifabutin was administered weekly beginning one week post-inoculation. Control mice were given no CHOP or rifabutin.
SCID mice were injected with CHOP-resistant G3 cells in the same manner as the first efficacy study above. Treatments began 2 weeks post-inoculation and were administered twice weekly.

ROS in G3 lymphoma cells = test: Intracellular ROS (CellROX, flow cytometry) in G3 cells; assay type: cell-based, human; conditions: 10 uM rifabutin over time
[4] = cited from earlier work
[5] = test system: CHOP-sensitive CRL2631 cells; test: Prevention of the emergence of CHOP resistance; assay type: cell-based, human; conditions: one week CHOP+rifabutin, half (0.5×) and full (1×) doses of CHOP
Experimental: The ability of rifabutin to prevent the emergence of CHOP-resistance was determined by treating CHOP-sensitive CRL2631 cells with either CHOP alone or CHOP+rifabutin for one week. Following treatment, the cells were grown in the absence of CHOP, then their sensitivity to CHOP was assayed by retreatment with CHOP, followed by counting of viable cells. […] A 1×CHOP dose in this experiment corresponds to final concentrations of the following components: 0.83 μM 4-hydroxycyclophosphamide [4HC, a pre-activated form of cyclophosphamide], 0.057 μM doxorubicin, 0.01 μM vincristine, and 0.186 μM prednisone.

CRL2631 cells = test: Collagen invasion 3D assay, CRL2631 cells; assay type: cell-based, human; conditions: 10 uM Rifabutin in collagen matrix, 24 hours
Experimental: The effects of rifabutin on cell invasion was assessed in a collagen invasion 3D assay. Increased interest in the use of 3D culture systems has been motivated by accumulating evidence that 3D models better reflect the microenvironment of tumors and metastases and more accurately predict therapeutic response in vivo compared with conventional 2D assays. A collagen invasion 3D assay allows the rapid and quantitative assessment of invasiveness and a means to screen for drugs which alter the invasive phenotype of tumor cells.
The CHOP-resistant G3 cell line is much more invasive in a collage invasion 3D assay than its CHOP-sensitive parent cell line (CRL2631). Collagen matrices (1 mg/ml) were prepared as previously described in Su, S. C., et al., Molecular profile of endothelial invasion of three-dimensional collagen matrices: insights into angiogenic sprout induction in wound healing. Am. J. Physiol. […] Cell invasion density was quantified by counting fixed cultures under transmitted light using an Olympus CK2 inverted microscope equipped with eyepieces displaying a 10×10 ocular grid. For each condition, four random fields were selected and the number of invading cells per high power field (HPF) was counted manually at 10× magnification, corresponding to 1 mm^2 area. […]

Chain of ABCB1 pumps (P08183 whole entry): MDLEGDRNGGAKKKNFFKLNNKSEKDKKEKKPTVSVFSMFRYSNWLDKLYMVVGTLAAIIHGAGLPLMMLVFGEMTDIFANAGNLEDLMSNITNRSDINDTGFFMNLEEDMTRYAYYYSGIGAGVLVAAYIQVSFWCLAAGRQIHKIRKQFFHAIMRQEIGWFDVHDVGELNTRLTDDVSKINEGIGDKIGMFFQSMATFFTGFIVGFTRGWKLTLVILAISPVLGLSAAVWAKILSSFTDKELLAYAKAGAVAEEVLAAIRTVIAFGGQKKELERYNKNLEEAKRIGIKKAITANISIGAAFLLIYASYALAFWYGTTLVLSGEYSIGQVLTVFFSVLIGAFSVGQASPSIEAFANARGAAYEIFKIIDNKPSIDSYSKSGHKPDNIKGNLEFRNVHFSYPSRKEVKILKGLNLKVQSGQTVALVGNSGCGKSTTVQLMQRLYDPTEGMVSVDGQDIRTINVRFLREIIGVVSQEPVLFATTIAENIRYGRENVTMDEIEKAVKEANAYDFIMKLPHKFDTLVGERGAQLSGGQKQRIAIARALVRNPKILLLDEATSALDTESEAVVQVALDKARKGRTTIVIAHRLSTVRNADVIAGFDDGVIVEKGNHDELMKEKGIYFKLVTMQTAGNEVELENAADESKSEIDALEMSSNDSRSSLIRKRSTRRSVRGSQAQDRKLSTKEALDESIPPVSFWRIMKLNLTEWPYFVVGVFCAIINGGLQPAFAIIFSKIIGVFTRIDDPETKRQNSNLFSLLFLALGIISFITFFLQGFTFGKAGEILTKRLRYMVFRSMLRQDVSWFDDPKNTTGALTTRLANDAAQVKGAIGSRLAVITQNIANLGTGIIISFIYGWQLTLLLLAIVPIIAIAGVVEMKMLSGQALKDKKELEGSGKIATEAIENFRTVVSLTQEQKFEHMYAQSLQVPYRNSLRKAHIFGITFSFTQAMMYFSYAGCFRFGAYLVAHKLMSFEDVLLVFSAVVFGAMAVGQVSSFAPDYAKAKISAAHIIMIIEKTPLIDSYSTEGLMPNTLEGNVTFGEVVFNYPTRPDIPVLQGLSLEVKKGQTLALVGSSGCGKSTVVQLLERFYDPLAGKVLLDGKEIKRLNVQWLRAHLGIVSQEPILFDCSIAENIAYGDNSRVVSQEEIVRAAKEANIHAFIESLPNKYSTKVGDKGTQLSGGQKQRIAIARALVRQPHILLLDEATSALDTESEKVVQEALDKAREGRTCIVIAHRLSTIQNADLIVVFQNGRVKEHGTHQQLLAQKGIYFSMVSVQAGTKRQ

For `CO[C@H]1/C=C/O[C@@]2(C)Oc3c(C)c(O)c4c(c3C2=O)C2=NC3(CCN(CC(C)C)CC3)NC2=C(NC(=O)/C(C)=C\C=C\[C@H](C)[C@H](O)[C@@H](C)[C@@H](O)[C@@H](C)[C@H](OC(C)=O)[C@@H]1C)C4=O` [Rifabutin, rifabutin], the “comparative cytotoxicity to normal cells” value [1] was “not toxic to normal cells”, the “inhibition of efflux pumps” value (ABCB1 pumps) was “clear inhibition of efflux pumps” and the “sensitivity of cells to CHOP relative to a control drug” value ([2]; CHOP-sensitive cells as printed, FIG. 2B) was “enhanced the sensitivity”. For the same compound, the “CHOP sensitivity of low-ROS cell population” value ([2]; low-ROS CRL2631 cells, 10 uM rifabutin) was “sensitized to CHOP”, the “cell growth in the absence of CHOP” value ([2]; rifabutin alone, CRL2631) was “did not affect the growth” and the “overall tumor burden per mouse” value ([3]; first study, rifabutin 100 mg/kg by gavage with CHOP at maximum tolerated dose weekly for 3 weeks, versus CHOP only) was “much lower”. The “toxicity of the rifabutin dosage in the mice” value ([3]; mouse, in vivo) was “little or not toxicity”, the “injection sites that developed tumors” value ([3]; second study, treated before palpable tumors, CHOP+rifabutin group, 6 of 16 sites) was 37.5% and the tumor load ([3]; third study, reduced dosages of CHOP with 33 mg/kg rifabutin weekly, versus untreated mice) was “significantly less”. The ROS induction (ROS in G3 lymphoma cells) was “rapidly induces ROS”, the initial half-life ([4]; biphasic plasma elimination) was “approximately 4 hours” and the mean terminal half-life ([4]; biphasic plasma elimination) was 45 (±17) hours. For the same compound, the “mean (±SD) peak plasma concentration (Cmax)” value ([4]; single oral dose of 300 mg) was 375 (±267) ng/mL, the “emergence of CHOP-resistant cells” value [5] was “significantly repress the emergence of CHOP-resistant cells” and the reduction of invasion (CRL2631 cells) was “Less of this effect”.
